Measurements reported in the supplement of paper PMC10883282.
Counter-ions that a name gives are not always drawn. ± gives the standard deviation of the averaged measurements.

System: KHOS-240S
Assay: relative viability vs DMSO control (72 h) (fraction); higher = more viable cells
In short: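 Relative viability was measured with ATPLite and expressed as percent growth, averaged across up to triplicate wells. Sarcoma cell lines had been seeded in 384-well plates to reach 80–90% confluence, dosed after 24 h, and incubated 72 h at 37 °C, 5% CO2. All data were rescaled on a scale where 1 is full and 0 is none.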

Row | Structure (SMILES) | relative viability (0.00017 µM) | relative viability (0.00051 µM) | relative viability (0.00152 µM) | relative viability (0.00457 µM) | relative viability (0.01372 µM) | relative viability (0.04115 µM) | relative viability (0.1235 µM) | relative viability (0.3704 µM) | relative viability (1.111 µM) | relative viability (3.333 µM) | relative viability (10 µM)
1 | C[C@@H]1COCCN1c1cc(-c2ccnn2C)c2ccnc(-c3ccn[nH]3)c2n1 | 1.04 ± 0.014 | 1.06 ± 0.013 | 1.07 ± 0.042 | 1.04 ± 0.011 | 1.01 ± 0.036 | 0.783 ± 0.028 | 0.366 ± 0.051 | 0.194 ± 0.026 | 0.161 ± 0.0077 | 0.129 ± 0.0056 | 0.119 ± 0.0037
2 | CCN1CCN(Cc2ccc(Nc3ncc(F)c(-c4cc(F)c5nc(C)n(C(C)C)c5c4)n3)nc2)CC1 [Abemaciclib] | 1.04 ± 0.038 | 1.07 ± 0.061 | 1.07 ± 0.059 | 1.05 ± 0.039 | 1.04 ± 0.048 | 1 ± 0.077 | 0.892 ± 0.071 | 0.834 ± 0.028 | 0.736 ± 0.024 | 0.7 ± 0.014 | 0.539 ± 0.025
3 | CCc1cc2c(cc1N1CCC(N3CCOCC3)CC1)C(C)(C)c1[nH]c3cc(C#N)ccc3c1C2=O [Alectinib] | 1.06 ± 0.048 | 1.09 ± 0.075 | 1.09 ± 0.064 | 1.08 ± 0.066 | 1.06 ± 0.072 | 1.07 ± 0.069 | 1.05 ± 0.074 | 0.998 ± 0.079 | 0.996 ± 0.063 | 0.984 ± 0.054 | 0.971 ± 0.073
4 | Cc1nc(NC(=O)N2CCC[C@H]2C(N)=O)sc1-c1ccnc(C(C)(C)C(F)(F)F)c1 [Alpelisib] | 1.05 ± 0.071 | 1.07 ± 0.02 | 1.03 ± 0.054 | 1.05 ± 0.054 | 1.02 ± 0.061 | 1.01 ± 0.048 | 0.914 ± 0.055 | 0.907 ± 0.039 | 0.825 ± 0.065 | 0.791 ± 0.04 | 0.697 ± 0.054
5 | Cn1cc(-c2cc3c(N4CCN(c5ncc([C@@](C)(N)c6ccc(F)cc6)cn5)CC4)ncnn3c2)cn1 [Avapritinib] | 1.03 ± 0.022 | 1.025 ± 0.0056 | 1 ± 0.039 | 0.992 ± 0.038 | 1.02 ± 0.033 | 1.01 ± 0.014 | 0.965 ± 0.024 | 0.943 ± 0.021 | 0.84 ± 0.026 | 0.783 ± 0.027 | 0.656 ± 0.025
6 | CC(C)NC(=O)C1CCC(n2c(NC(=O)c3ccc(F)cc3)nc3ccc(CN4CCC(C(C)(C)O)CC4)cc32)CC1 (centres undefined) [Belizatinib] | 1.07 ± 0.02 | 1.06 ± 0.012 | 1.07 ± 0.043 | 1.08 ± 0.013 | 1.08 ± 0.041 | 1.06 ± 0.033 | 1.06 ± 0.034 | 0.923 ± 0.02 | 0.713 ± 0.038 | 0.399 ± 0.0041 | 0.189 ± 0.0089
7 | Cn1cnc2c(F)c(Nc3ccc(Br)cc3F)c(C(=O)NOCCO)cc21 [Binimetinib] | 1.03 ± 0.053 | 1.06 ± 0.054 | 1.07 ± 0.067 | 1.06 ± 0.052 | 0.998 ± 0.02 | 0.975 ± 0.027 | 0.922 ± 0.04 | 0.895 ± 0.069 | 0.855 ± 0.0094 | 0.737 ± 0.027 | 0.637 ± 0.045
8 | Nc1cc(C(F)(F)F)c(-c2cc(N3CCOCC3)nc(N3CCOCC3)n2)cn1 [Buparlisib] | 1.039 ± 0.01 | 1.02 ± 0.024 | 1.04 ± 0.012 | 1.02 ± 0.033 | 1.03 ± 0.032 | 1.03 ± 0.083 | 0.989 ± 0.023 | 0.9151 ± 0.008 | 0.708 ± 0.024 | 0.114 ± 0.0036 | 0.0584 ± 0.0016
9 | CNC(=O)c1ccc(-c2cnc3ncc(Cc4ccc5ncccc5c4)n3n2)cc1F [Capmatinib] | 1.07 ± 0.048 | 1.05 ± 0.02 | 1.046 ± 0.0098 | 1.07 ± 0.033 | 1.07 ± 0.018 | 1.06 ± 0.018 | 1.06 ± 0.027 | 1.04 ± 0.018 | 1.03 ± 0.018 | 1.03 ± 0.012 | 0.986 ± 0.03
10 | COc1cc2c(Oc3ccc4[nH]c(C)cc4c3F)ncnc2cc1OCCCN1CCCC1 [Cediranib] | 1.06 ± 0.017 | 1.05 ± 0.021 | 1.082 ± 0.0088 | 1.07 ± 0.02 | 1.05 ± 0.013 | 1.03 ± 0.011 | 0.992 ± 0.015 | 0.922 ± 0.022 | 0.908 ± 0.013 | 0.906 ± 0.032 | 0.898 ± 0.015
11 | COc1c(OCCCN2CCOCC2)ccc2c1N=C(NC(=O)c1cnc(N)nc1)N1CCN=C21 [Copanlisib] | 1.09 ± 0.041 | 1.02 ± 0.048 | 1.06 ± 0.013 | 0.922 ± 0.094 | 0.889 ± 0.098 | 0.833 ± 0.09 | 0.714 ± 0.014 | 0.629 ± 0.022 | 0.409 ± 0.018 | 0.217 ± 0.008 | 0.188 ± 0.003
12 | CN1CCN(c2ccc3nc(-c4c(N)c5c(F)cccc5[nH]c4=O)[nH]c3c2)CC1 [Dovitinib] | 1.07 ± 0.031 | 1.04 ± 0.051 | 1.06 ± 0.046 | 1.02 ± 0.023 | 1.05 ± 0.033 | 1.08 ± 0.019 | 0.979 ± 0.022 | 0.891 ± 0.059 | 0.548 ± 0.014 | 0.289 ± 0.027 | 0.0854 ± 0.0022
13 | COc1cccc2c1C(=O)c1c(O)c3c(c(O)c1C2=O)C[C@@](O)(C(=O)CO)C[C@@H]3O[C@H]1C[C@H](N)[C@H](O)[C@H](C)O1 [Doxorubicin Hydrochloride] | 1.08 ± 0.041 | 1.05 ± 0.033 | 1.05 ± 0.026 | 1.07 ± 0.039 | 0.996 ± 0.042 | 0.654 ± 0.045 | 0.459 ± 0.011 | 0.241 ± 0.018 | 0.109 ± 0.0065 | 0.124 ± 0.021 | 0.106 ± 0.0059
14 | Cc1cnc(Nc2ccc(OCCN3CCCC3)cc2)nc1Nc1cccc(S(=O)(=O)NC(C)(C)C)c1 [Fedratinib] | 1.07 ± 0.046 | 1.07 ± 0.047 | 1.07 ± 0.033 | 1.06 ± 0.023 | 1.05 ± 0.058 | 1.05 ± 0.094 | 0.989 ± 0.062 | 0.801 ± 0.018 | 0.412 ± 0.031 | 0.103 ± 0.011 | 0.0053 ± 0.0017
